Consider eight compounds from patent publication US20110105409A1, “Anticancer Compounds” (priority 2008, published 2011).

One data set has as its system MDA-MB-231. Put plainly: SRB colorimetric cytotoxicity assay, MDA-MB-231. The data set is classed as cell-based, human. The conditions noted are these: for CC50 / GI50: Homo sapiens; for CC50: MDA-MB-231, 72 h, read-out: LC50; for GI50 / TGI: MDA-MB-231, 72 hours treatment, SRB. An excerpt:
(§1) The aim of this assay is to evaluate the in vitro cytostatic (ability to delay or arrest tumor cell growth) or cytotoxic (ability to kill tumor cells) activity of the samples being tested.
(§2) A colorimetric assay, using sulforhodamine B (SRB) reaction has been adapted to provide a quantitative measurement of cell growth and viability (following the technique described by Skehan et al. J. Natl. Cancer Inst. 1990, 82, 1107-1112).
(§3) This form of assay employs SBS-standard 96-well cell culture microplates (Faircloth et al. Methods in Cell Science, 1988, 11(4), 201-205; Mosmann et al, Journal of Immunological Methods, 1983, 65(1-2), 55-63). All the cell lines used in this study were obtained from the American Type Culture Collection (ATCC) and derive from different types of human cancer.
(§4) Cells were maintained in Dulbecco's Modified Eagle Medium (DMEM) supplemented with 10% Fetal Bovine Serum (FBS), 2 mM L-glutamine, 100 U/mL penicillin and 100 U/mL streptomycin at 37° C., 5% CO2 and 98% humidity. For the experiments, cells were harvested from subconfluent cultures using trypsinization and resuspended in fresh medium before counting and plating.
(§5) Cells were seeded in 96 well microtiter plates, at 5×10^3-7.5×10^3 cells per well in aliquots of 150 μL, and allowed to attach to the plate surface for 18 hours (overnight) in drug free medium. After that, one control (untreated) plate of each cell line was fixed (as described below) and used for time zero reference value. Culture plates were then treated with test compounds (50 μL aliquots of 4× stock solutions in complete culture medium plus 4% DMSO) using ten serial dilutions (concentrations ranging from 10 to 0.00262 μg/mL) and triplicate cultures (1% final concentration of DMSO). After 72 hours treatment, the antitumor effect was measured by using the SRB methodology: Briefly, cells were washed twice with PBS, fixed for 15 min in 1% glutaraldehyde solution at room temperature, rinsed twice in PBS, and stained in 0.4% SRB solution for 30 min at room temperature. Cells were then rinsed several times with 1% acetic acid solution and air-dried at room temperature. SRB was then extracted in 10 mM trizma base solution and the absorbance measured in an automated spectrophotometric plate reader at 490 nm. Effects on cell growth and survival were estimated by applying the NCI algorithm (Boyd M R and Paull K D. Drug Dev. Res. 1995, 34, 91-104).
(§6) Using the mean±SD of triplicate cultures, a dose-response curve was automatically generated using nonlinear regression analysis. Three reference parameters were calculated (NCI algorithm) by automatic interpolation: GI50=compound concentration that produces 50% cell growth inhibition, as compared to control cultures; TGI=compound concentration that produces total cell growth inhibition (cytostatic effect), as compared to control cultures, and LC50=compound concentration that produces 50% net cell killing (cytotoxic effect).

A further data set relates to HT29. Put plainly: SRB colorimetric cytotoxicity assay, HT29. The data set is classed as cell-based, human. The conditions noted are these: for TGI / GI50: HT29, 72 hours treatment, SRB; for CC50 / GI50: Homo sapiens; for CC50: HT-29, 72 h, read-out: LC50; for GI50: HT-29.
Text: as §1, §2, §3, §4, §5, §6

In another data set the test system is A549. The data set is described as follows: SRB colorimetric cytotoxicity assay, A549. The data set is classed as cell-based, human. The conditions noted are these: for TGI / GI50: A549, 72 hours treatment, SRB; for CC50 / GI50: Homo sapiens; for CC50: A549, 72 h, read-out: LC50.
Text: as §1, §2, §3, §4, §5, §6

In another data set the test system is Na^+/Ca^2+ exchanger. The conditions noted are these: cited from earlier work.
A further data set has as its system guinea pig atria. As to conditions: cited from earlier work.
A further data set deals with Candida albicans. The conditions noted are these: 100 μg/disc (6 mm); cited from earlier work.
Another data set concerns HIV-1 (Lai strain). The conditions noted are these: CEM4 cells; cited from earlier work.
The subject of data set [1] is CEM4 lymphocytic cell lines. The conditions noted are these: CEM4 lymphocytic cell lines infected with HIV-1 (Lai strain); cited from earlier work.
Data set [2] relates to NSCLC-N6, E39, P388, and M96 tumor cells. The conditions noted are these: range over NSCLC-N6, E39, P388 and M96 tumor cells; cited from earlier work.
The next data set deals with HIV-1. As to conditions: cytoprotective activity against HIV-1 infection; cited from earlier work.
In data set [3] the test system is CEM-TART (CEM T-cells expressing both HIV-1 tat and rev). The conditions noted are these: CEM-TART cell line, cytotoxic activity; cited from earlier work.
For data set [4], the system named is HCT-116 (human colon tumor). The conditions noted are these: HCT-116 cell line, cytotoxic activity; cited from earlier work.
In the next data set the test system is HIV-1RF. As to conditions: infection of human T-lymphoblastoid cells by HIV-1RF in vitro; cited from earlier work.
Data set [5] concerns panel of human cancer cell lines. The conditions noted are these: mean over panel of human cancer cell lines; cited from earlier work.

Starred links: 1 amine or outer side, 2 acyl side, 3 side chain; linkers in the order of their positions; H or OH if unused. Positions of bridges follow the written chain, without caps; N, C: chain ends. Non-standard residues stand in square brackets, D forms with d. Residues, ends and D or L forms follow the SMILES beside them. ξ: configuration not given here. *: point of attachment. γ4hArg(2R,3R-(OH)2) = N=C(N)NCCC[C@H](N[*:1])[C@@H](O)[C@@H](O)C(=O)[*:2]; Heptanoyl(3R-OH,2R,4R,6-Me3) = CC(C)C[C@@H](C)[C@@H](O)[C@@H](C)C(=O)*; Gln(3S,4R-Me2) = C[C@H]([C@H](N)C(=O)O)[C@@H](C)C(N)=O; ξThr(3R)(O-yl) = C[C@@H](O[*:3])C(N[*:1])C(=O)[*:2]; dTyr(βR-OMe) = CO[C@H](c1ccc(O)cc1)[C@@H](N)C(=O)O; X6 = C[C@H](C(N[*:1])C(=O)[*:2])[C@@H](C)C(N)=O; X7 = CO[C@H](c1ccc(O)cc1)C(N[*:1])C(=O)[*:2]; dAsn(3S-OH) = NC(=O)[C@@H](O)[C@@H](N)C(=O)O; X5 = C[C@@H]1[C@@H](C(=O)*)NC(=O)[C@@H]1C; X4 = CC(C)(O)C(N[*:1])C(O)C(O)C(=O)[*:2]; ξGln(3,4-Me2) = CC(C(N)=O)C(C)C(N)C(=O)O; Abu(3S-NH2) = C[C@H](N)[C@H](N)C(=O)O; ξAsn(3ξ-OMe) = COC(C(N)=O)C(N)C(=O)O; d(aThr) = C[C@@H](O)[C@@H](N)C(=O)O; NMeQ = CN[C@@H](CCC(N)=O)C(=O)O; X1 = CC(C)CC(C)/C=C\C(O)CC(=O)*; ξThr(3R) = C[C@@H](O)C(N)C(=O)O; X3 = CCC(C)CC(C)C(O)C(C)C(=O)*; NMeL = CN[C@@H](CC(C)C)C(=O)O; X2 = CCCC(C)/C=C\C(O)CC(=O)*; Pip = O=C(O)[C@@H]1CCCCN1; NMeA = CN[C@@H](C)C(=O)O; dDap = NC[C@@H](N)C(=O)O; ξOrn = NCCCC(N)C(=O)O

Turning to `COC[C@H]1NC(=O)[C@H](NC(=O)C(NC(=O)[C@@H](NC(=O)[C@H](NC(=O)[C@H](NC(=O)CC(O)/C=C\C(C)CC(C)C)[C@H](O)C(N)=O)[C@@H](C)O)[C@H](C)N)C(C)C(C)C(N)=O)[C@@H](C)OC(=O)[C@H](C)N(C)C(=O)[C@@H]([C@H](OC)c2ccc(O)cc2)NC(=O)[C@H](CCC(N)=O)N(C)C(=O)[C@H](CC(C)C)NC(=O)CNC1=O` (stereo partly drawn) [Stellatolide A] (X1-[dAsn(3S-OH)][d(aThr)][Abu(3S-NH2)][ξGln(3,4-Me2)][d(aThr)][dS](Me)GL[NMeQ][dTyr(βR-OMe)][NMeA]; ester 5-C), in the data set with MDA-MB-231, the CC50 came to 761 nM, the 50% growth inhibitory concentration (GI50) stood at 330 nM and the TGI is reported as 4.95E−07 Molar. Also, in the data set on HT29, the TGI is reported as 8.88E−07 Molar, the CC50 came to 1330 nM and the GI50 is 603 nM. For the same compound, in the data set on A549, the TGI is 1.97E−07 Molar, the CC50 amounted to 406 nM and the GI50 turned out to be 101 nM.
On to `CCCC(C)/C=C\C(O)CC(=O)N[C@@H](C(=O)N[C@@H](C(=O)N[C@H](C(=O)NC(C(=O)N[C@H]1C(=O)N[C@H](COC)C(=O)NCC(=O)N[C@@H](CC(C)C)C(=O)N(C)[C@@H](CCC(N)=O)C(=O)N[C@H]([C@H](OC)c2ccc(O)cc2)C(=O)N(C)[C@@H](C)C(=O)O[C@@H]1C)C(C)C(C)C(N)=O)[C@H](C)N)[C@@H](C)O)[C@H](O)C(N)=O` (stereo partly drawn) [Stellatolide B] (X2-[dAsn(3S-OH)][d(aThr)][Abu(3S-NH2)][ξGln(3,4-Me2)][d(aThr)][dS](Me)GL[NMeQ][dTyr(βR-OMe)][NMeA]; ester 5-C), for which, in the data set on MDA-MB-231, the CC50 was 1730 nM, the 50% growth inhibitory concentration (GI50) was 704 nM and the TGI is given as 1.09E−06 Molar. Also, in the data set with HT29, the TGI is reported as 1.60E−06 Molar, the CC50 was 2370 nM and growth was halved (GI50) at 1150 nM. In addition, in the data set with A549, the TGI is reported as 1.09E−06 Molar, the CC50 was determined as 1920 nM and halving of growth (GI50) required 640 nM.
For `CO[C@H](c1ccc(O)cc1)[C@H]1NC(=O)[C@H](CCC(N)=O)N(C)C(=O)[C@H](CC(C)C)NC(=O)[C@@H](CCCN=C(N)N)NC(=O)[C@H]([C@@H](C)O)NC(=O)[C@@H](NC(=O)[C@@H](NC(=O)[C@H](O)[C@H](O)[C@H](CCCN=C(N)N)NC(=O)[C@@H](C)NC(=O)[C@H](C)[C@H](O)[C@H](C)CC(C)C)[C@@H](C)[C@@H](C)C(N)=O)[C@@H](C)OC(=O)[C@H](C)N(C)C1=O` [callipeltin A] ({Heptanoyl(3R-OH,2R,4R,6-Me3)}-[dA][γ4hArg(2R,3R-(OH)2)][Gln(3S,4R-Me2)]TT[dR]L[NMeQ][dTyr(βR-OMe)][NMeA]; ester 4-C), the “inhibition of the Na+/Ca2+ exchanger” value in the data set with Na^+/Ca^2+ exchanger is “selective and powerful inhibitor”. Also, in the data set with guinea pig atria, the inotropic effect result was “positive inotropic agent”. Further, the “inhibition of growth (zone)” value in the data set on Candida albicans is 30 mm. In addition, the “selectivity index (SI ratio CD50/ED50)” value in the data set on HIV-1 (Lai strain) is 29. In data set [1], the CD50 is 0.29 µg/mL.
In the case of `CO[C@H](c1ccc(O)cc1)[C@H]1NC(=O)[C@H](CCC(N)=O)N(C)C(=O)[C@H](CC(C)C)NC(=O)[C@@H](CCCNC(=N)N)NC(=O)[C@@H]([C@@H](C)O)NC(=O)[C@H](NC(=O)[C@H]2NC(=O)[C@H](C)[C@@H]2C)[C@@H](C)OC(=O)[C@H](C)N(C)C1=O` [callipeltin B] (X5-[d(aThr)][d(aThr)][dR]L[NMeQ][dTyr(βR-OMe)][NMeA]; ester 1-C), the IC50 in [2] is on record as 1.3 to >30 μg/mL.
On to `CO[C@H](c1ccc(O)cc1)C1NC(=O)[C@H](CCC(N)=O)N(C)C(=O)[C@H](CC(C)C)NC(=O)[C@@H](CCCNC(=N)N)NC(=O)C([C@@H](C)O)NC(=O)C(NC(=O)C(NC(=O)[C@H](O)[C@H](O)[C@H](CCCNC(=N)N)NC(=O)[C@H](CC(N)=O)NC(=O)[C@H](C)[C@H](O)[C@H](C)CC(C)C)[C@@H](C)[C@@H](C)C(N)=O)[C@@H](C)OC(=O)[C@@H]2CCCCN2C(=O)[C@@H](CC(N)=O)NC1=O` (stereo partly drawn) [neamphamide A] ({Heptanoyl(3R-OH,2R,4R,6-Me3)}-N[γ4hArg(2R,3R-(OH)2)][X6][ξThr(3R)(O-yl)][ξThr(3R)][dR]L[NMeQ][X7][dN][Pip]; ester 4-C), for which the half-maximal effective concentration (EC50) in the data set on HIV-1 is approximately 28 nM.
As to `CCC(C)CC(C)C(O)C(C)C(=O)N[C@H](CN)C(=O)NC(C(O)C(O)C(=O)NC(C(=O)N[C@H]1C(=O)N[C@H]([C@@H](C)O)C(=O)NC(CCCN)C(=O)N[C@@H](CC(C)C)C(=O)N(C)[C@@H](CCC(N)=O)C(=O)NC(C(OC)C(N)=O)C(=O)N[C@H](CC(N)=O)C(=O)N(C)[C@@H](CC(C)C)C(=O)O[C@@H]1C)C(C)C(C)C(N)=O)C(C)(C)O` (stereo partly drawn) [theopapuamide] (X3-[dDap][X4][ξGln(3,4-Me2)][d(aThr)][d(aThr)][ξOrn]L[NMeQ][ξAsn(3ξ-OMe)][dN][NMeL]; ester 4-C), the values for the EC50 in data set [3] and in [4] were 500 nM and 900 nM, respectively.
With papuamide A, the 50% effective concentration (EC50) entry in the data set with HIV-1RF is “approximately 4 ng/mL”. Besides, the “mean IC50” value in data set [5] is 0.075 µg/mL.
Regarding papuamide B, the EC50 result in the data set with HIV-1RF is recorded as “approximately 4 ng/mL”.

The GI50 is the concentration giving 50% growth inhibition. A high value points to less potent growth inhibition. The EC50 is the midpoint of the concentration-response curve.
